Earlier results on one substance are cited in patent EP4759824A1, “DANSYLAMIDE-MODIFIED COMPOUNDS TARGETING PSMA, PREPARATION METHOD THEREFOR, AND USE THEREOF” (Yantai Lannacheng Biotechnology Co., Ltd., priority 2023, dated 2025).

In this series the test system is PSMA-positive mCRPC. The settings on record: combined with SOC, mCRPC patients.

Turning to “lutetium Lu-177 vipivotide tetraxetan [^177Lu-PSMA-617]”, the “median radiographic progression-free survival” value (SOC alone 3.4 months) is recorded as 8.7 months. Besides, under “SOC alone 11.3 months”, the median overall survival is 15.3 months.
